The results in this text go back to US12091404B2 (Gilead Sciences, Inc., priority 2021, dated 2024).

Each structure is given as a SMILES string.

T1 sequence (P43220 24-463): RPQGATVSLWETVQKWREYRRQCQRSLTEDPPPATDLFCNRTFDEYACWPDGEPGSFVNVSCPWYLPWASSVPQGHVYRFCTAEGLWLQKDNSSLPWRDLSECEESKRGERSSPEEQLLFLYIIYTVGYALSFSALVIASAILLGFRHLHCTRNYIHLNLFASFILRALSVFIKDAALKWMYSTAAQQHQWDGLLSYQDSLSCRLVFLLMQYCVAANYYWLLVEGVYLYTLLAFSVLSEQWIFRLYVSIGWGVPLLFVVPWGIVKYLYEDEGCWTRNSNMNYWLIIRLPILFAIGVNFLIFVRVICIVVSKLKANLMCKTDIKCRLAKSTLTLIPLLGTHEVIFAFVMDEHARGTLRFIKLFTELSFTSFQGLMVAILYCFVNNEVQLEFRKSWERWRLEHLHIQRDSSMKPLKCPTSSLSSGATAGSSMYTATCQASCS

The target in one assay is T1, GLP-1R (Homo sapiens, UniProt P43220). The experiment in a line: GLP-1R Activation - cAMP Assay 1. Format: cell-based. The note with it: cAMP increase in CHO cells stably expressing GLP-1R; 10-point dose response, 30 minutes incubation at 37° C. Here is the method:
GLP-1R Activation—cAMP Assay 1
GLP-1R activation by a compound of the present disclosure was quantified by measuring cAMP increase in CHO cells stably expressing GLP-1R (MultiSpan product #C1267-1a). The cells were harvested and plated in growth medium (DMEM/F-12 (Corning product #10-090-CV) supplemented with 10% FBS (HyClone product #SH30071-03), penicillin/streptomycin (Corning product #30-002CI) and 10 µg/ml puromycin (Gibco product #A11138-03)) at 1,000 cells/well in a 384-well plate (Greiner product #781080). The cells were then incubated overnight at 37° C., 5% CO2. The next day, the medium was removed and the cells were washed with DPBS (Corning product #21-031-CM) before adding the assay medium (HBSS, Corning product #21-023-CV) with 20 mM Hepes (Gibco product #15630-080) and 0. 1% BSA (Rockland Immunochemicals product #BSA-1000)). Following the medium change, the cells were incubated for 1 hour at 37° C., 5% CO2. The tested GLP-1 compound was added to the cells in a 10-point dose response followed by a 30 minutes incubation at 37° C., 5% CO2. cAMP concentration increase was then detected using Cisbio's cAMP Gs Dynamic Kit (product #62AM4PEC) according to the manufacturer's protocol. The response was plotted against the log of the agonist concentration and fitted to a sigmoidal equation to determine the EC50.
In general, EC50 refers to the concentration giving half of the maximal effect. On to `COCCn1c(CN2CCC(c3cccc(OCc4ccsc4)n3)CC2)nc2ccc(C(=O)O)cc21` [Example 12, 1-(2-methoxyethyl)-2-((4-(6-(thiophen-3-ylmethoxy)pyridin-2-yl)piperidin-1-yl)methyl)-1H-benzo[d]imidazole-6-carboxylic acid], for which the EC50 stood at 831 nM.

Take `COCCn1c(CN2CCC(c3cccc(OCc4nnc(Cl)s4)n3)CC2)nc2ccc(C(=O)O)cc21` [Example 4]: the concentration giving a half-maximal response (EC50) is 294 nM.

`COCCn1c(CN2CCC(c3cccc(OCc4sc(C#N)cc4F)n3)CC2)nc2ccc(C(=O)O)cc21` [Example 1, 2-((4-(6-((5-cyano-3-fluorothiophen-2-yl)methoxy)pyridin-2-yl)piperidin-1-yl)methyl)-1-(2-methoxyethyl)-1H-benzo[d]imidazole-6-carboxylic acid]: the EC50 was 166 nM.

The compound `COCCn1c(CN2CCC(c3cccc(OCc4cnc(Cl)s4)n3)CC2)nc2ccc(C(=O)O)cc21` [Example 3, 2-[[4-[6-[(2-chlorothiazol-5-yl)methoxy]-2-pyridyl]-1-piperidyl]methyl]-3-(2-methoxyethyl)benzimidazole-5-carboxylic acid] displayed an EC50 of 307 nM.

The compound `COCCn1c(CN2CCC(c3cccc(OCc4csc5cc(Cl)ccc45)n3)CC2)nc2ccc(C(=O)O)cc21` [Example 11, 2-((4-(6-((6-chlorobenzo[b]thiophen-3-yl)methoxy)pyridin-2-yl)piperidin-1-yl)methyl)-1-(2-methoxyethyl)-1H-benzo[d]imidazole-6-carboxylic acid] returned an EC50 of 156 nM.

As to `COCCn1c(CN2CCC(c3cccc(OCc4ccc(C#N)s4)n3)CC2)nc2ccc(C(=O)O)cc21` [Example 2, 2-((4-(6-((5-cyanothiophen-2-yl)methoxy)pyridin-2-yl)piperidin-1-yl)methyl)-1-(2-methoxyethyl)-1H-benzo[d]imidazole-6-carboxylic acid], it took 47.3 nM to reach a half-maximal effect (EC50).

`COCCn1c(CN2CCC(c3cccc(OCc4csc5ccccc45)n3)CC2)nc2ccc(C(=O)O)cc21` [Example 13, 2-((4-(6-(benzo[b]thiophen-3-ylmethoxy)pyridin-2-yl)piperidin-1-yl)methyl)-1-(2-methoxyethyl)-1H-benzo] showed an EC50 of 197 nM.

In turn, `COCCn1c(CN2CCC(c3cccc(OCc4nccs4)n3)CC2)nc2ccc(C(=O)O)cc21` [Example 18, 1-(2-methoxyethyl)-2-((4-(6-(thiazol-2-ylmethoxy)pyridin-2-yl)piperidin-1-yl)methyl)-1H-benzo[d]imidazole-6-carboxylic acid] gave an EC50 of 869 nM.

As to `COCCn1c(CN2CCC(c3cccc(OCc4cnn(C)n4)n3)CC2)nc2ccc(C(=O)O)cc21` [Example 20, 1-(2-methoxyethyl)-2-((4-(6-((2-methyl-2H-1,2,3-triazol-4-yl)methoxy)pyridin-2-yl)piperidin-1-yl)methyl)-1H-benzo[d]imidazole-6-carboxylic acid], the EC50 was determined as 4350 nM.

`COCCn1c(CN2CCC(c3cccc(OCc4cscn4)n3)CC2)nc2ccc(C(=O)O)cc21` [Example 19, 1-(2-methoxyethyl)-2-((4-(6-(thiazol-4-ylmethoxy)pyridin-2-yl)piperidin-1-yl)methyl)-1H-benzo[d]imidazole-6-carboxylic acid] registered an EC50 of 5900 nM.

Another assay addresses T1, GLP-1R. The experiment in a line: GLP-1R Activation - cAMP Assay 2. The format is cell-based.
Conditions: not given
The protocol: GLP-1R Activation—cAMP Assay 2 GLP-1R activation by small molecule agonists is quantified by measuring cAMP increase in CHO cells stably expressing GLP-1R (MultiSpan product #C1267-1a). 50 nL of agonists are pre-spotted in a 10-point dose response onto 384-well plate (Corning product #CL3826) using the Labcyte Echo System. […] The cells are then incubated for 30 minutes at 37° C., 5% CO2. cAMP concentration increase is then detected using Cisbio's cAMP Gs Dynamic Kit (product #62AM4PEC) according to the manufacturer's protocol. The response is plotted against the log of the agonist concentration and fitted to a sigmoidal equation to determine the EC50.
In turn, `N#Cc1ccc(COc2cccc(C3CCN(Cc4nc5ccc(C(=O)O)cc5n4C[C@@H]4CCO4)CC3)n2)s1` [Example 6, (S)-2-((4-(6-((5-cyanothiophen-2-yl)methoxy)pyridin-2-yl)piperidin-1-yl)methyl)-1-(oxetan-2-ylmethyl)-1H-benzo[d]imidazole-6-carboxylic acid] yielded an EC50 of 0.9 nM.

Staying with this assay, now noted: cAMP increase in CHO cells stably expressing GLP-1R; pre-spotted agonists, assay buffer or 100% Human Plasma (not stated which), 30 minutes at 37° C.; read-out: GLP-1R Activation- Assay 2 EC50 (nm).
Regarding `NC(=O)c1ccc(COc2cccc(C3CCN(Cc4nc5ccc(C(=O)O)cc5n4C[C@@H]4CCO4)CC3)n2)s1` [Example 7, (S)-2-((4-(6-((5-carbamoylthiophen-2-yl)methoxy)pyridin-2-yl)piperidin-1-yl)methyl)-1-(oxetan-2-ylmethyl)-1H-benzo[d]imidazole-6-carboxylic acid], the EC50 is 36.5 nM.

In the case of `O=C(O)c1ccc2nc(CN3CCC(c4cccc(OCc5cc(C(F)(F)F)cs5)n4)CC3)n(C[C@@H]3CCO3)c2c1` [Example 16, (S)-1-(oxetan-2-ylmethyl)-2-((4-(6-((4-(trifluoromethyl)thiophen-2-yl)methoxy)pyridin-2-yl)piperidin-1-yl)methyl)-1H-benzo[d]imidazole-6-carboxylic acid], the EC50 worked out at 4.1 nM.

On to `N#Cc1cnc(COc2cccc(C3CCN(Cc4nc5ccc(C(=O)O)cc5n4C[C@@H]4CCO4)CC3)n2)s1` [Example 17, (S)-2-((4-(6-((5-cyanothiazol-2-yl)methoxy)pyridin-2-yl)piperidin-1-yl)methyl)-1-(oxetan-2-ylmethyl)-1H-benzo[d]imidazole-6-carboxylic acid], for which the EC50 was found to be 24.1 nM.

As to `O=C(O)c1ccc2nc(CN3CCC(c4cccc(OCc5ncc(C(F)(F)F)s5)n4)CC3)n(C[C@@H]3CCO3)c2c1` [Example 14, (S)-1-(oxetan-2-ylmethyl)-2-((4-(6-((5-(trifluoromethyl)thiazol-2-yl)methoxy)pyridin-2-yl)piperidin-1-yl)methyl)-1H-benzo[d]imidazole-6-carboxylic acid], the EC50 was found to be 1.8 nM.

`O=C(O)c1ccc2nc(CN3CCC(c4cccc(OCc5ccn(C(F)F)n5)n4)CC3)n(C[C@@H]3CCO3)c2c1` [Example 8, (S)-2-((4-(6-((1-(difluoromethyl)-1H-pyrazol-3-yl)methoxy)pyridin-2-yl)piperidin-1-yl)methyl)-1-(oxetan-2-ylmethyl)-1H-benzo[d]imidazole-6-carboxylic acid]: the EC50 was 21.5 nM.

In the case of `O=C(O)c1ccc2nc(CN3CCC(c4cccc(OCc5nc(C(F)(F)F)cs5)n4)CC3)n(C[C@@H]3CCO3)c2c1` [Example 15, (S)-1-(oxetan-2-ylmethyl)-2-((4-(6-((4-(trifluoromethyl)thiazol-2-yl)methoxy)pyridin-2-yl)piperidin-1-yl)methyl)-1H-benzo[d]imidazole-6-carboxylic acid], the EC50 amounted to 5.2 nM.

In the case of `Cn1ccc(COc2cccc(C3CCN(Cc4nc5ccc(C(=O)O)cc5n4C[C@@H]4CCO4)CC3)n2)n1` [Example 5, (S)-2-((4-(6-((1-methyl-1H-pyrazol-3-yl)methoxy)pyridin-2-yl)piperidin-1-yl)methyl)-1-(oxetan-2-ylmethyl)-1H-benzo[d]imidazole-6-carboxylic acid], the EC50 was more than 100 nM.

Turning to `Cn1cc(C#Cc2ccc(COc3cccc(C4CCN(Cc5nc6ccc(C(=O)O)cc6n5C[C@@H]5CCO5)CC4)n3)s2)cn1` [Example 9, 2-[[4-[6-[[5-[2-(1-methylpyrazol-4-yl)ethynyl]-2-thienyl]methoxy]-2-pyridyl]-1-piperidyl]methyl]-3-[[(2S)-oxetan-2-yl]methyl]benzimidazole-5-carboxylic acid], the EC50 came to 3.3 nM.

For the compound `O=C(O)c1ccc2nc(Cc3cc(F)c(-c4cccc(OCc5cc(C(F)(F)F)cs5)n4)cc3F)n(C[C@@H]3CCO3)c2c1` [Example 10, 2-[[2,5-difluoro-4-[6-[[4-(trifluoromethyl)-2-thienyl]methoxy]-2-pyridyl]phenyl]methyl]-3-[[(2S)-oxetan-2-yl]methyl]benzimidazole-5-carboxylic acid], the EC50 worked out at 0.4 nM.
